Experimental data as given in US10912803B2, “Probiotic and polyphenol against neurodegeneration” (NESTEC S.A., priority 2012, dated 2021).

Key:
[1] = target: T1, size exclusion purified monomeric Aβ42 (LMW) (Homo sapiens, UniProt P05067); test: Assay 1: Targeting monomeric Aβ assay, ThT fluorescence; assay type: biochemical; details: for LMW (effects of compounds compared to control without compounds) - signal intensity: 37° C; for Inhibition of Aβ fibrillization: LMW, ratio and time not stated
T1 construct: size exclusion purified monomeric Aβ42 (LMW)
Experimental: Assay 1: Targeting Monomeric Aβ Assay (Timeframe 24-48 Hrs) (See FIG. 1):
In this assay, it was started with size exclusion purified monomeric Aβ42 (LMW). This was incubated with a compound of interest (C) at 37° C. The extent of aggregation was then assessed at 24 and 48 hrs by Thioflavin T (ThT) fluorescence. […] However, it is difficult to infer from this assay alone at which point along the amyloid formation pathway the compound acts, i.e., does interfere with monomer to protofibrils transition or block protofibrils to fibril transition.
(§1) Aβ42 LMW and PF were used at a final concentration of […] and incubated alone or with the compounds at a ratio of 1:0.5 or 1:2.

[2] = target: T2, size exclusion purified protofibrillar mixture of Aβ42 (PF) (Homo sapiens, UniProt P05067); test: Assay 2: Targeting protofibrillar Aβ assay, ThT fluorescence; assay type: biochemical; details: for PF (effects of compounds compared to control without compounds) - signal intensity: 37° C; for Inhibition of Aβ fibrillization: PF, ratio and time not stated
T2 construct: size exclusion purified protofibrillar mixture of Aβ42 (PF)
Experimental: Assay 2: Targeting Protofibrillar Aβ Assay (Timeframe 24-48 Hrs) (See FIGS. 1 and 2A-2D):
In this assay it was started with a size exclusion purified protofibrillar mixture of Aβ42 (PF). This was incubated with the compound of interest (C) at 37° C. The extent of aggregation was then assessed at 24 and 48 hrs by Thioflavin T (ThT) fluorescence. […] This could occur via at least two mechanisms; i) blocking protofibrils to fibril transition or ii) inducing the dissociation/disaggregation of protofibrils.
as §1

[3] = 24 h, ratio Aβ42:compound 1:0.5, Aβ42 10 pM

T2 sequence (P05067 672-713 limits assumed): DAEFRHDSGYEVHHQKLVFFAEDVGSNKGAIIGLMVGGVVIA
T1 sequence (P05067 672-713 limits assumed): as above

Compound: O=C(/C=C/c1ccc(O)c(O)c1)O[C@@H](C(=O)O)[C@@H](O)C(=O)O [NP7, Caftaric acid]
- LMW (effects of compounds compared to control without compounds) - signal intensity ([1]; 24 h, ratio 1:2, Aβ42 10 pM): Decrease
- LMW (effects of compounds compared to control without compounds) - signal intensity [1, 3]: Decrease
- LMW (effects of compounds compared to control without compounds) - signal intensity ([1]; 48 h, ratio 1:0.5, Aβ42 10 pM): Decrease
- LMW (effects of compounds compared to control without compounds) - signal intensity ([1]; 48 h, ratio 1:2, Aβ42 10 pM): Decrease
- Inhibition of Aβ fibrillization [1]: 42%
- PF (effects of compounds compared to control without compounds) - signal intensity ([2]; 24 h, ratio 1:0.5, Aβ42 10 pM): Decrease
- PF (effects of compounds compared to control without compounds) - signal intensity ([2]; 24 h, ratio 1:2, Aβ42 10 pM): Decrease
- PF (effects of compounds compared to control without compounds) - signal intensity ([2]; 48 h, ratio 1:0.5, Aβ42 10 pM): Decrease
- PF (effects of compounds compared to control without compounds) - signal intensity ([2]; 48 h, ratio 1:2, Aβ42 10 pM): Decrease
- Inhibition of Aβ fibrillization [2]: 35%

Compound: Chicoric acid [NP5]
- LMW (effects of compounds compared to control without compounds) - signal intensity ([1]; 24 h, ratio 1:2, Aβ42 10 pM): Decrease
- LMW (effects of compounds compared to control without compounds) - signal intensity [1, 3]: Decrease
- LMW (effects of compounds compared to control without compounds) - signal intensity ([1]; 48 h, ratio 1:0.5, Aβ42 10 pM): Decrease
- LMW (effects of compounds compared to control without compounds) - signal intensity ([1]; 48 h, ratio 1:2, Aβ42 10 pM): Decrease
- Inhibition of Aβ fibrillization [1]: 50%
- PF (effects of compounds compared to control without compounds) - signal intensity ([2]; 24 h, ratio 1:0.5, Aβ42 10 pM): Decrease
- PF (effects of compounds compared to control without compounds) - signal intensity ([2]; 24 h, ratio 1:2, Aβ42 10 pM): Decrease
- PF (effects of compounds compared to control without compounds) - signal intensity ([2]; 48 h, ratio 1:0.5, Aβ42 10 pM): Decrease
- PF (effects of compounds compared to control without compounds) - signal intensity ([2]; 48 h, ratio 1:2, Aβ42 10 pM): Decrease
- Inhibition of Aβ fibrillization [2]: 41%
